In US9814758B2, “Inhibitors of apoptosis and uses thereof” (CENTRE NATIONAL DE LA RECHERCHE SCIENTIFIQUE-CNRS, priority 2010, dated 2017):
Non-standard residues stand in square brackets, D forms with d. Residues, ends and D or L forms follow the SMILES beside them. No end group written: not given here. Ahx = NCCCCCC(=O)O

What was measured:
[1] = test system: H9c2 cells; experiment: STS-induced DNA fragmentation (Cell Death detection ELISA PLUS) in H9c2 cells; type: cell-based, rat; settings: rat H9c2 (model for cardiac cells); FIG. 5C
Method: FIG. 5: In vitro evaluation of the anti-apoptotic activity of CPPs and CPP-conjugates. Workflow and quantitation of DNA fragmentation in (A) C2C12 cells, (B) primary cardiomyocytes, (C) H9c2 cells and (D) NG108-15 cells. Data were normalized to 100% STS. Data shown are the means±SEM, with n≧5. Cells were seeded in 24-well plates and grown overnight. The next day, the cells were incubated with STS alone or with STS+1 μM peptide (in OPTI-MEM) (OPTI-MEM® is a modification of Eagle's Minimum Essential Media, buffered with HEPES and sodium bicarbonate, and supplemented with hypoxanthine, thymidine, sodium pyruvate, L-glutamine, trace elements, and growth factors) (STS concentration and incubation time for each cells are given in the figure). Thereafter, solutions were removed, replaced by complete medium and further incubated for 40 h. Following the regeneration phase, the cells were lyzed and DNA fragmentation was detected according to manufacturer's instructions (Cell Death detection ELISA^PLUS kit—Roche Diagnostics). […]
Thereafter, the capacity of these peptides to inhibit apoptosis induced by staurosporine was evaluated. Apoptosis was determined using the Cell Death detection ELISA^PLUS kit (Roche) measuring the DNA fragmentation.
The anti-apoptotic effects of the peptides were also analyzed in murine NG118-15 (model for neuronal cells) (FIG. 5D), in murine C2C12 (model for muscle cells) (FIG. 5A) and in rat H9c2 (model for cardiac cells) (FIG. 5C). The highest reduction in DNA fragmentation were observed using Bpep-DAXXp in NG118-15 (66% reduction) using Tat-DAXXp in C2C12 (24% reduction) and Pip2b-DAXXp in H9c2 (31% reduction).

[2] = test system: kidney graft; experiment: Cold ischemia/reperfusion injury during kidney transplantation; type: in vivo, rat; settings: preliminary
Excerpt: FIG. 17: Preliminary data on cold ischemia/reperfusion injury during kidney transplantation. Brain death and prolonged cold ischemia are major contributors to the poorer long-term outcome of transplants from deceased donor kidney transplants, with an even higher impact if expanded criteria donors (‘marginal organs’) are used. Targeting ischemia-reperfusion (IR) injury-related intragraft inflammation is an attractive concept to improve the outcome of those grafts. (A) Workflow of cold ischemia/reperfusion during kidney transplantation in rat. After a 24 h cold ischemia, the kidney graft was transplanted orthotopically into male LEW recipients using standard microsurgical techniques. Peptides were injected immediately after reperfusion in a single i.v injection at 1 mg/kg. Three days after transplantation, grafts were harvested for RT-PCR analysis (n=3). (B) Total RNA was reverse transcribed into cDNA and subjected to quantitative real-time RT-PCR utilizing the GENEAMP® 5700 Sequence Detection System (Applied Biosystems, Weiterstadt, Germany). The TAQMAN®-PCR reactions for ICAM-1, IFN-γ, TNF-α, interleukin (IL)-6 and bcl-2 (synthesized by Metabion, Martinsried, Germany) were performed in a final volume of 25 μl.

[3] = 1 mg/kg single i.v. after reperfusion, kidney graft 3 days after transplantation, RT-PCR

CC[C@H](C)[C@H](NC(=O)[C@H](Cc1c[nH]cn1)NC(=O)[C@@H](NC(=O)[C@H](CCCNC(=N)N)NC(=O)CCCCCNC(=O)[C@H](CCCNC(=N)N)NC(=O)[C@H](CCCNC(=N)N)NC(=O)CCCCCNC(=O)[C@H](CCCNC(=N)N)NC(=O)[C@H](CCCNC(=N)N)NC(=O)CCCCCNC(=O)[C@@H](N)CCCNC(=N)N)[C@@H](C)CC)C(=O)N[C@@H](CC(C)C)C(=O)N[C@@H](Cc1ccccc1)C(=O)N[C@@H](CCC(N)=O)C(=O)N[C@@H](CC(N)=O)C(=O)N[C@H](CCCNC(=N)N)C(=O)N[C@@H](CCCNC(=N)N)C(=O)N[C@@H](CCSC)C(=O)N[C@@H](CCCCN)C(=O)N[C@@H](Cc1c[nH]c2ccccc12)C(=O)N[C@@H](Cc1c[nH]cn1)C(=O)N[C@@H](CCCCN)C(=O)N[C@@H](CCCCN)C(=O)N[C@@H](CCCCN)C(=O)N[C@@H](CO)C(=O)N[C@@H](CCCNC(=N)N)C(=O)N[C@@H](CCCCN)C(=O)N[C@@H](CCC(=O)O)C(=O)N[C@@H](CCCCN)C(=O)N[C@@H](CCCCN)C(=O)N[C@@H](CCC(N)=O)C(=O)N[C@H](C(=O)NCC(=O)N[C@@H](CO)C(=O)NCC(=O)N1CCC[C@H]1C(=O)N[C@@H](CC(C)C)C(=O)NCC(N)=O)[C@@H](C)O [Pip2b-DAXXp, (RXR)3-IHILFQNrRMKWHK-KKSRKEKKQTGSGPLG-NH2] (H-R[Ahx]RR[Ahx]RR[Ahx]RIHILFQN[dR]RMKWHKKKSRKEKKQTGSGPLG-NH2; N-terminus assumed)
reduction in DNA fragmentation [1]: 31%

GRKKRRQRRRPPQKKSRKEKKQTGSGPLG-NH2 [Tat-DAXXp, GRKKRRQRRRPPQ-KKSRKEKKQTGSGPLG-NH2]
mRNA expression of ICAM-1 [2, 3]: reduction in mRNA expression
mRNA expression of IFN-γ [2, 3]: reduction in mRNA expression
protection from ischemia-reperfusion injuries ([2]; 1 mg/kg, renal transplantation model (Rat)): able to protect from ischemia-reperfusion injuries
